Patent publication EP0306971A2, “Use of milk fat globules as carriers for drugs and as microflotation devices in immunoassays and cell/molecular fractionation” (Bankert, Richard B., priority 1987, dated 1989)

Assay: incorporation of adriamycin into MFG, by difference, spectrofluorometric determination
Type: physicochemical
Conditions: 0.9 ml packed MFG with 0.1 ml adriamycin 1 mg/ml in PBS, overnight at room temperature
Description: The milk fat globules to be loaded with drug are obtained from raw bovine milk by centrifugation at 1,500 x g for 10 min at room temperature followed by removal of the underlying (sub-natant) aqueous material. The MFG is washed three times by the addition of phosphate buffered saline, pH 7.4 (PBS) to the original volume followed by centrifugation at 1500 x g for 10 min and removal of the sub-natant fluid. Adriamycin is rapidly and stably loaded into the MFG very efficiently by incubating 0.9 ml packed MFG with 0.1 ml adriamycin, dissolved in PBS to a concentration of 1 mg/ml, overnight at room temperature. The resultant MFG is then transferred to a 10 ml syringe fitted with a stopcock, brought to 10 ml with PBS and centrifuged at 1500 x g for 10 min. The sub-natant fluid is removed by opening the stopcock and the milk fat globule layer is washed three times by gentle suspension in PBS followed by centrifugation. […] The presence of adriamycin is detected in the MFG by its fluorescence emission at 590 nm using fluorescence microscopy. Alternatively, the amount of incorporated adriamycin can be calculated by difference, after determination of the amount of adriamycin remaining in the first sub-natant fraction by spectrofluorometric determination using an excitation wavelength of 470 nm and an emission wavelength of 590 nm. […]

added drug incorporated into the MFG: up to 80%
Structure (SMILES): COc1cccc2c1C(=O)c1c(O)c3c(c(O)c1C2=O)C[C@@](O)(C(=O)CO)C[C@@H]3O[C@H]1C[C@H](N)[C@H](O)[C@H](C)O1 [adriamycin]
